Laboratory results reported in patent publication US8277824B2, “Solubilization of cyclohexane-based carboxamide derivatives for use as sensates in consumer products” (The Procter & Gamble Company, priority 2008, dated 2012).
Like-named read-outs stand apart in the source and are kept apart here. Blank lines part the entries; values can stand above or below the compound they belong to.

Key:
[1] = concentration level where the cooling effect could be clearly recognized; Emberger and Hopp 1987; cited from earlier work
Cooling effect (sensory) = assay type: in vivo; details: neoisomer prepared in Procter & Gamble laboratories
From the text: Many of the compounds above including menthol have relatively low potency and the duration of the cooling effect is typically short-lived. Thus, it is necessary to include fairly high levels of such compounds when formulating products, which increases cost. In addition, many of these compounds are relatively high cost ingredients since they are expensive to manufacture on an industrial scale. Therefore, compounds with high potency and long lasting cooling effect are highly sought that will require only small amounts for incorporation in a variety of consumer products to provide high impact and long-lasting effect. Such potent and long lasting coolant compounds have recently been described for example in WO 2005/049553A1 to Givaudan including ρ-menthane carboxamides substituted at the amide N-position with an aryl moiety bearing certain substituents. Examples include N-(4-cyanomethylphenyl)-ρ-menthanecarboxamide; N-(4-sulfamoylphenyl)-ρ-menthanecarboxamide; N-(4-cyanophenyl)-ρ-menthanecarboxamide; N-(4-acetylphenyl)-ρ-menthanecarboxamide, N-(4-hydroxymethylphenyl)-ρ-menthanecarboxamide and N-(3-hydroxy-4-methoxyphenyl)-ρ-menthanecarboxamide. […]

[2] = Experimental solubility limit of G-180 in liquid solvents (visual clarity); assay type: physicochemical; details: 25° C.
Experimental: The solubility of G-180 in various solvents was determined as follows. Aliquot one to twenty grams of a target solvent into a vial or flask. Weigh out G-180 to provide a concentration of 25%. […] Visually inspect for clarity. If the solution is not completely clear, add solvent, calculate new concentration of G-180 and repeat the solubilization energy and check for clarity. Once a level of clarity is achieved, repeat the process but increase the G-180 concentration by 10% until clarity is diminished. Once these cross points of clarity are achieved, this is reported as the experimental solubility limit of G-180 in the respective solvent.

[3] = demonstrated in commonly assigned U.S. Application No. 61/003,863; cited from earlier work

Compound: CC(C)[C@H]1CC[C@H](C)C[C@H]1O [l-neomenthol]
cooling threshold [1]: about 3,000 ppb

Compound: CC(C)[C@@H]1CC[C@@H](C)C[C@@H]1C(=O)Nc1ccc(CC#N)cc1 [neoisomer, N-[4-(cyanomethyl)phenyl]-(1S,2S,5R)-2-isopropyl-5-methylcyclohexanecarboxamide]
cooling effect (Cooling effect (sensory)): potent and long-lasting cooling effect

G180 Experimental % Solubility ([2]; solvent 2,3-dimethyl Pyrazine): 20.4%
G180 Experimental % Solubility ([2]; solvent 2,5-dimethyl Pyrazine): 20.0%
G180 Experimental % Solubility ([2]; solvent Benzaldehyde): 16.7%
G180 Experimental % Solubility ([2]; solvent Benzyl Salicylate): 14.7%
G180 Experimental % Solubility ([2]; solvent Benzyl alcohol): 21.2%
G180 Experimental % Solubility ([2]; solvent Cuminylaldehyde): 20.0%
G180 Experimental % Solubility ([2]; solvent Isoamyl propionate): 13.2%
G180 Experimental % Solubility ([2]; solvent Menthone): 15.4%
G180 Experimental % Solubility ([2]; solvent Neryl acetate): 7.4%
G180 Experimental % Solubility ([2]; solvent Para-Tolualdehyde): 15.9%
G180 Experimental % Solubility ([2]; solvent Triacetin): 4.4%
G180 Experimental % Solubility ([2]; solvent Water): <0.1%
G180 Experimental % Solubility ([2]; solvent α-Amyl Cinnamic Aldehyde): 12.1%
Compound: CC(C)[C@@H]1CC[C@@H](C)C[C@H]1C(=O)Nc1ccc(CC#N)cc1 [G180, N-[4-(cyanomethyl)phenyl]-(1R,2S,5R)-2-isopropyl-5-methylcyclohexanecarboxamide]
cooling effect [3]: intense and long-lasting cooling effect

Compound: CC(C)[C@@H]1CC[C@@H](C)C[C@H]1O [L-menthol]
cooling threshold [1]: about 800 ppb

Compound: CC(C)[C@@H]1CC[C@@H](C)C[C@@H]1O [d-neomenthol]
cooling threshold [1]: about 25,000 ppb
